Patent publication US8435576B2, “Use of cocoa polyphenols for treating a prostate hyperplasia, a specific cocoa extract and applications” (Barry Callebaut AG, priority 2005, dated 2013)

Legend:
Type in all cases: in vivo, Wistar rats
[1] = tested on: cognitive performances after heat stroke; assay: Light extinction test after heat stroke; conditions: day 18, after heat stroke
Method: (§1) After each daily administration of the product, the rats have free access to standard food granules.
(§2) On the 16th day, after fasting over night, the conscious rats of the various groups, with the exception of those of the vehicle group, are exposed to a heat stroke by placing them in a temperature-controlled chamber at 40° C. with a relative humidity of 50% for 120 minutes. The rats expressed their normal heat-regulating behavior. Immediately after the heat stroke, the rats with a rectal temperature of between 41.5° C. and 42° C. are included in the study. The rats returned to their cage at 22° C.
Three days after exposure to the heat stroke, on day 18 (D18), the rats are tested for the preventive antioxidant effects of the two CPEs on the learning performances, by using the light extinction test. The experimental device consists of a brightly lit cage (50×40×37 cm). The level of lighting in the test cage is 1200 lux.
During the test session, the rats are placed individually in the cage for 20 minutes to learn how to control the light environment.

[2] = Body weight during 14-day oral treatment before heat stroke
Method: Eight male rats of Wistar/Han IGS strain (Charles River Laboratories, 69-St-Germain sur l'Arbresle—France) weighing 300 to 320 g are used. On receipt, the rats are housed, four to a cage, in 48×27×20 cm polycarbonate cages (U.A.R., 91-Epinay-Sur-Orge, France) in a controlled environment (50±5% humidity; temperature 22±1° C.; lighting from 20:00 h to 08:00 h, i.e. an inverted lightness/darkness cycle: 12 h/12 h).
The rats are weighed each day for the fourteen days of the treatment in order to determine their body weight change.

[3] = tested on: cognitive performances after heat stroke; assay: Morris water labyrinth test after heat stroke
Method: as §1, §2
The Morris water labyrinth (1984) makes it possible to test the capacity for spatial orientation and the processes of learning and memorization. On the 20th and 21st days (D20 and D21), the rats are tested in the water labyrinth device to evaluate the spatial learning performances and their long-term memory. The experimental procedure consists in training rats, on the 20th day, to find a hidden platform (10 mm below the surface of the water) at a fixed point in the water tank (150 cm in diameter) in a series of five tests starting from the same starting point.
During the first test, the platform is placed against the wall of the tank. During the second test, the platform is placed 5 cm from the wall of the tank to allow the rats to find the platform easily. During the following three tests, the platform is placed 10 cm from the wall of the tank. Each test is followed by a 30-second rest period on the platform.
On the 21st day, the platform is placed at a distance from the wall of the tank in the same place as during the session on the 20th day and the long-term memory of the rats is tested in a single test.
The variable recorded in the water tank is the latency time required to get out of the water and reach the platform serving as a refuge arranged in the basin.

leukocyte free radicals = assay: Free radicals in the blood after heat stroke (pholasine chemiluminescence); conditions: after heat stroke 40° C., 120 min; 14 days oral CPE1 22.9, CPE2 24.3, vitamin E 200 mg/kg/day
Method: as §1, §2
On the 16th day, 500 μl of blood samples were collected from the tail vein of 12 rats of each group, into tubes containing heparin to check the increase in free radicals after exposure to the heat stroke. On the basis of the chemiluminescence of pholasine, a photo-protein from the marine mollusc Pholas dactylus, the production of leukocyte free radicals was measured using a kit (Knight Scientific, Cell Activation Test Kits for Whole Blood with Adjuvant-K) by activation of the NADPH oxydase complex in diluted blood (In CytoTox laboratory, Nancy, France).

Cc1c(C)c2c(c(C)c1O)CC[C@@](C)(CCC[C@H](C)CCC[C@H](C)CCCC(C)C)O2 [Vitamin E, α-tocopherol]
Discrimination of the levers [1]: pressed the active lever more than the inactive lever
Number of active lever presses (ALP) (mean ± SEM) [1]: 27.28 ± 3.54
Number of inactive lever presses (ILP) (mean ± SEM) [1]: 17.60 ± 2.47
Total number of lever presses (Mean ± SEM) ([1]; n = 16/group): 42.38 ± 5.76
Body weight ([2]; Day 1, oral daily CPE1 22.9, CPE2 24.3, vitamin E 200 mg/kg): 320.9 ± 15.4 g
Body weight ([2]; Day 3): 328.9 ± 15.8 g
Body weight ([2]; Day 4): 330.6 ± 15.7 g
Body weight ([2]; Day 5): 333.9 ± 16.5 g
Body weight ([2]; Day 6): 336.6 ± 15.9 g
Body weight ([2]; Day 7): 339.4 ± 17.3 g
Body weight ([2]; Day 8): 342.1 ± 17.2 g
Body weight ([2]; Day 11): 351.6 ± 18.0 g
Body weight ([2]; Day 12): 354.6 ± 18.8 g
Latency for reaching the platform (Mean ± SEM) ([3]; Day 20, Test 1): 51.75 ± 6.45 s
Latency for reaching the platform (Mean ± SEM) ([3]; Day 20, Test 2): 25.38 ± 4.94 s
Latency for reaching the platform (Mean ± SEM) ([3]; Day 20, Test 3): 26.44 ± 5.20 s
Latency for reaching the platform (Mean ± SEM) ([3]; Day 20, Test 4): 17.75 ± 2.44 s
Latency for reaching the platform (Mean ± SEM) ([3]; Day 20, Test 5): 13.56 ± 1.37 s
Latency for reaching the platform (Mean ± SEM) ([3]; Day 21, Test 6): 14.69 ± 2.22 s
Free radical content in the plasma on the 16th day (Mean ± SEM) (leukocyte free radicals): 311.15 ± 20.56 mV
